Patent publication US8440830B2, “Tetrahydro-fused pyridines as histone deacetylase inhibitors” (4SC AG, priority 2007, dated 2013)

How the values were obtained:
[1] = test system: A549 NSCLC cells; experiment: Cell cycle analysis by flow cytometry; assay type: cell-based, human; details: A549, 24 h treatment
Protocol: A549 NSCLC cells (ATTC CCL-185) are cultivated in DMEM with high glucose (supplemented with 10% FBS) at 5% CO2 and 37° C. in a humidified atmosphere under standard cell culture conditions. 24 h before compound treatment, cells are seeded at 5×10^4 cells/ml (=5×10^5 cells/10 cm cell culture dish) to allow logarithmic proliferation during the experiment. After 24 h, cells were treated with test compound or 0.5 vol % DMSO as a control. After 24 h and 48 h treatment, the culture medium is collected and detached, floating cells are collected by short centrifugation (5 min at 1200 rpm). Attached cells are washed once with 5 ml PBS, detached by treatment with 3 ml trypsin/EDTA solution (short incubation for 3-5 min) and—together with detached, floating cells—transferred into 15 ml Falcon tubes. The cell culture dish is washed with 10 ml DMEM to collect all remaining cells. After centrifugation for 5 min at 1200 rpm at room temperature, the supernatant is discarded and the cell pellet washed twice with 10 ml PBS. The supernatant is discarded, the cells resuspended in 4 ml ice-cold fixation solution (70 vol % ethanol, 30 vol % H2O; stored at −20° C.) and stored at −20° C. overnight. Next, 10 ml PBS (4° C.) is added to the cells, before centrifugation for 5 min at 1200 rpm (4° C.). The supernatant is discarded, the cell pellet washed once with 10 ml PBS (4° C.) and the cell pellet finally resuspended in about 1 ml staining solution (10 μg/ml RNAse A, 10 μg/ml propidiumiodide in PBS, final volume dependent on cell number). After incubation for 30 min at room temperature in the dark, cells are stored on ice and analyzed using the Becton Dickinson FACS Canto device. Analysis is done at an excitation of λ=488 nm with emission set as λ=600 nm.
Data analysis: Cells are analyzed according to size, granularity and propidiumiodide intensity. Size and granularity of cells are determined by measurement of forward scatter (FSC) and side scatter (SSC) of the λ=488 nm excitation light, respectively. To discriminate cells with 4N DNA content from cell doublets (two attached cells with 2N DNA content each), the ratio between the area under the propidiumiodide peak (PE-A) and the height of the propidiumiodide peak (PE-H) for each cell is determined. Cell doublets need more time to pass through the laser beam, which causes a broadening of the propidiumiodide peak and an increase of the ratio PE-A/PE-H. Using this analysis, cells in 4N and cell doublets appear as distinct clouds in a scatter plot and are excluded from the analysis. Thus, the area under the propidiumiodide peak at λ=600 nm (PE-A) is a measure for the DNA content of the cells. PE-A is blotted against the measured cell number in a histogram in order to determine the percentage of analyzed cells in an individual stage of the cell cycle.

[2] = test system: A549 NSCLC cells; experiment: Cellular cytotoxicity assay (Alamar Blue), A549; assay type: cell-based; details: Homo sapiens, 72 h, upper end given as ≧100, read-out: IC50 (μM), cytotoxicity towards A549 NSCLC cells
In short: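 Cells were dosed 24 h after seeding with semi-log compound dilutions in quadruplicate, then incubated 72 h at 37 °C, 5% CO2. Viability read by Resazurin reduction (4 h, fluorescence 544/590 nm) relative to untreated 0.5% DMSO controls; IC50 by non-linear regression.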

Nc1ccccc1NC(=O)c1nc2c(s1)CN(C(=O)Nc1ccc(-c3ccccc3)cc1)CC2 [Example 1, N^2-(2-aminophenyl)-N5-biphenyl-4-yl-6,7-dihydro[1,3]thiazolo[5,4-c]pyridine-2,5(4H)-dicarboxamide]
concentration inducing arrest in G1, depletion of cells in the S-phase and reduction of cells in the G2/M-phase [1]: around 3 μM | IC50 [2]: ≥ 0.2 µM

Nc1ccccc1NC(=O)c1nc2c(s1)CN(C(=O)Nc1cnc3ccccc3c1)CC2 [Example 12, N^2-(2-aminophenyl)-N5-quinolin-3-yl-6,7-dihydro[1,3]thiazolo[5,4-c]pyridine-2,5(4H)-dicarboxamide]
concentration inducing arrest in G1, depletion of cells in the S-phase and reduction of cells in the G2/M-phase [1]: around 3 μM | IC50 [2]: ≥ 0.2 µM

COc1ccc(NC(=O)N2CCc3nc(C(=O)Nc4ccccc4N)sc3C2)cc1 [Example 3, N^2-(2-aminophenyl)-N5-(4-methoxyphenyl)-6,7-dihydro[1,3]thiazolo[5,4-c]pyridine-2,5(4H)-dicarboxamide]
concentration inducing arrest in G1, depletion of cells in the S-phase and reduction of cells in the G2/M-phase [1]: around 3 μM | IC50 [2]: ≥ 0.2 µM

CN(C)c1ccc(NC(=O)N2CCc3nc(C(=O)Nc4ccccc4N)sc3C2)cc1 [Example 2, N^2-(2-aminophenyl)-N5-[4-(dimethylamino)phenyl]-6,7-dihydro[1,3]thiazolo[5,4-c]pyridine-2,5(4H)-dicarboxamide]
concentration inducing arrest in G1, depletion of cells in the S-phase and reduction of cells in the G2/M-phase [1]: around 3 μM | IC50 [2]: ≥ 0.2 µM
